Test results published in patent US11439607B2 (Paracelsus Neuroscience I, LLC, priority 2016, dated 2022).

Tests used:
[1] = system: CCI rats; assay: Chronic constriction injury (CCI) model, von Frey paw withdrawal threshold; format: in vivo, rat; settings: gabapentin 100 mg/kg p.o., 2 hours after administration
Protocol: Peripheral nerve injury was performed according to the method of Bennett and Xie (Bennett and Xie, 1988), with paw withdrawal thresholds to Von Frey filament stimulation measured as described previously (Chaplan et al., 1994; Tal and Bennett, 1994).
In the first cohort of nerve injured rats, hindpaw mechanical hypersensitivity was evident by day 7 and maintained for the duration of the experiment (see FIG. 4A). […] Experiments were run using a simple cross-over design. Tactile hypersensitivity of rats was evaluated one day prior to drug testing. Drugs were allowed to wash out for one week at which time the mechanical hypersensitivity was reassessed. Rats were then randomly re-assigned to groups prior to the next arm of the study being run. In the final arm, tissue was collected from 3 animals from each group immediately after behavioral assessment of allodynia. Dosing of drugs, assessment of mechanical thresholds and collection of tissues were performed by individual experimenters all blinded to treatments.
All CCI data are presented as mean+/−S.E.M. and were analyzed using ANOVA followed by Fisher's PLSD post-hoc analysis (StatView, Cary, N.C.) when appropriate.

[2] = system: Oxaliplatin model; assay: Oxaliplatin - Acetone test (reaction time); format: in vivo, rodent; settings: Internal reference, Gabapentin 100 mg/kg p.o.
Protocol: (§1) Depending on the test, the percentage of activity was calculated from the mean value of the vehicle-treated animals and compared to naïve animals, control paw or cut-off value.

[3] = system: Carrageenan model; assay: Carrageenan - Paw pressure test; format: in vivo, rodent; settings: Internal reference, Indomethacin 30 mg/kg p.o.
Protocol: as §1

[4] = system: Kaolin model; assay: Kaolin - Gait score; format: in vivo, rodent; settings: Internal reference, Indomethacin 10 mg/kg p.o.
Protocol: as §1

[5] = system: Healthy rats; assay: Healthy rats - Tail flick test; format: in vivo; settings: Internal reference, Morphine 4 mg/kg s.c.
Protocol: as §1

[6] = system: Brennan model; assay: Brennan model - Electronic Von Frey test; format: in vivo, rodent; settings: Internal reference, Morphine 4 mg/kg s.c.
Protocol: as §1

[7] = system: Formalin test; assay: Formalin test - Score; format: in vivo, rodent; settings: internal reference, Morphine 4 mg/kg s.c.
Protocol: as §1

[8] = system: Bennett model; assay: Bennett model - Paw pressure test; format: in vivo, rodent; settings: Internal reference, Morphine 4 mg/kg s.c.
Protocol: as §1

[9] = system: Healthy rats; assay: Healthy rats - Paw pressure test; format: in vivo; settings: Internal reference, Morphine 4 mg/kg s.c.
Protocol: as §1

Question: NCC1(CC(=O)O)CCCCC1 [Gabapentin] was tested. Which “Reversal of mechanical hypersensitivity (tactile allodynia)” value [1] did it give?
Answer: 66%

Question: And the “% of activity vs. vehicle” value [2]?
Answer: 82%

Question: How did the “% of activity vs. vehicle” value [3] turn out when COc1ccc2c(c1)c(CC(=O)O)c(C)n2C(=O)c1ccc(Cl)cc1 [Indomethacin] was run?
Answer: 100%

Question: And the “% of activity vs. vehicle” value [4]?
Answer: 58%

Question: What does the source list for CN1CC[C@]23c4c5ccc(O)c4O[C@H]2[C@@H](O)C=C[C@H]3[C@H]1C5 [Morphine]?
Answer: % of activity vs. vehicle [5]: 66%; % of activity vs. vehicle [6]: 88%; % of activity vs. vehicle ([7]; early phase): 57%; % of activity vs. vehicle ([7]; late phase): 38%; % of activity vs. vehicle [8]: 191%; % of activity vs. vehicle [9]: 69%
